# Assays:
# [1] = test system: human functional connectome at rest; test: Resting-state BOLD-fMRI, graph theory: global efficiency (macroscale); 40 IU intranasal (spray/nebuliser) or 10 IU intravenous, about 57 min post-dosing, 16 healthy men; assay type: in vivo; settings: repeated measures one-way ANOVA, F (1.932, 28.980) = 0.568, p = 0.567
# Procedure: (§1) Each experimental session began with the treatment administration protocol that lasted about 22 min in total (Fig. 8, lower panel). After drug administration, participants were guided to the MRI scanner, where eight pulsed continuous arterial spin labelling scans (each lasting approx. eight minutes) were acquired, spanning 15–104 min post-dosing (data reported elsewhere[11]). The 8-min resting state BOLD-fMRI scan reported herein was obtained at about 57 ± 3.38 min post-dosing. Participants were instructed to lie still and maintain their gaze on a centrally placed fixation cross during scanning. We assessed participants’ levels of alertness (anchors: alert-drowsy) and excitement (anchors: excited-calm) using visual analogue scales (0–100) at three different time-points during the scanning session to evaluate subjective drug effects across time (data reported elsewhere[11]).
# (§2) MRI data were acquired on a 3 T MR750 system (GE Healthcare, Waukesha, Wisconsin) with a 32-channel head coil. Functional data was acquired using a shot multi-echo echo planar imaging (EPI) sequence (TR = 2500 ms, TE’s = 12, 28, 44 and 60 ms, FA = 80°, FOV = 240 × 240 mm^2, Matrix = 64 × 64, Slice thickness = 3 mm, 32 continuous descending axial slices, resolution = 3.75 × 3.75 × 3 mm). […] The resting state fMRI scan lasted 8 min 10 s, with collection of a total of 192 volumes for each echo. […]
# [2] = cited from earlier work
# Text: It is not yet clear which precise mechanisms mediate the effects of intravenous oxytocin on brain function. […] At least three mechanisms have been postulated. First, it is possible that the direct peripheral effects of oxytocin on oxytocin receptors expressed in vegetative territories, such as the heart, may be an indirect source of changes in the brain.
# [3] = test system: human functional connectome at rest; test: Resting-state BOLD-fMRI: mean brain-wide functional connectivity (macroscale); assay type: in vivo; settings: repeated measures one-way ANOVA, F(2.271, 34.070) = 0.774, p = 0.484
# Procedure: as §1, §2
# [4] = test system: human functional connectome at rest; test: Resting-state BOLD-fMRI: network edges (microscale), FDR and Network Based Statistics; assay type: in vivo
# Text: We used the CONN functional connectivity toolbox[97] to generate brain-wide functional connectivity matrices for each subject/session. […] The default atlas of the CONN toolbox includes 132 non-overlapping ROIs spanning cortical and subcortical areas and the cerebellum using a combination of the cortical and subcortical areas from the FSL Harvard-Oxford atlas and of the cerebellar areas of the Automatic Anatomical Labelling atlas (Supplementary data 1 for a detailed description). […] Finally, we normalized our correlation measures to z-scores using the Fisher’s r-z transform per subject/session.
# We did so by examining treatment-related changes in mean connectivity and global efficiency of the whole-brain network (macroscale), graph properties of regional connectivity at the node level (mesoscale) and individual connections between pairs of nodes (microscale). These analyses were performed using repeated measures one-way analysis of variance, implemented in Matlab 2016. When a significant effect was found, we followed up with post-hoc paired t-tests between each pair of the four treatment conditions, using FDR correction for multiple testing.
# Microscale. We performed two different analyses to investigate treatment-related changes on each individual edge of the connectivity matrices. […]
compound,measurement,setting,value
CC[C@H](C)[C@@H]1NC(=O)[C@H](Cc2ccc(O)cc2)NC(=O)[C@@H](N)CSSC[C@@H](C(=O)N2CCC[C@H]2C(=O)N[C@@H](CC(C)C)C(=O)NCC(N)=O)NC(=O)[C@H](CC(N)=O)NC(=O)[C@H](CCC(N)=O)NC1=O [oxytocin],Differences in global efficiency across the four treatment conditions,[1],no significant differences
same,Amount crossing the blood–brain barrier (BBB),[2],very small amounts
same,Effects on heart-rate or heart-rate variability,[2]; same doses/methods and cohort of participants,absence of effects
same,Differences in mean functional connectivity across the four treatment conditions,[3],no significant differences
same,Connectivity of individual edges across the four treatment conditions,[4]; FDR correction for the number of edges,did not find any individual edge where the four treatment conditions differed in connectivity
same,Connectivity of subnetworks across the four treatment conditions,"[4]; NBS, irrespective of the primary threshold used",did not identify any subnetwork where the four treatment conditions differed on connectivity

# — article PMC7811009, “Oxytocin modulates local topography of human functional connectome in healthy men at rest” (Communications Biology, 2021)
